{"source": "patent US20260042801A1", "about": "“COMPOSITIONS AND METHODS FOR DYE-BOUND CYCLIZED PEPTIDES FOR MEDICAL USE” (The Texas A&M University System, priority 2022, published 2026)", "key": {"[1]": {"target": "T1, TrkC (Homo sapiens, UniProt Q16288)", "T1 construct": "expressed in transfected cells; host or cells: NIH/3T3 (TrkC-NIH/3T3)", "T1 sequence (Q16288 32-839, species assumed)": "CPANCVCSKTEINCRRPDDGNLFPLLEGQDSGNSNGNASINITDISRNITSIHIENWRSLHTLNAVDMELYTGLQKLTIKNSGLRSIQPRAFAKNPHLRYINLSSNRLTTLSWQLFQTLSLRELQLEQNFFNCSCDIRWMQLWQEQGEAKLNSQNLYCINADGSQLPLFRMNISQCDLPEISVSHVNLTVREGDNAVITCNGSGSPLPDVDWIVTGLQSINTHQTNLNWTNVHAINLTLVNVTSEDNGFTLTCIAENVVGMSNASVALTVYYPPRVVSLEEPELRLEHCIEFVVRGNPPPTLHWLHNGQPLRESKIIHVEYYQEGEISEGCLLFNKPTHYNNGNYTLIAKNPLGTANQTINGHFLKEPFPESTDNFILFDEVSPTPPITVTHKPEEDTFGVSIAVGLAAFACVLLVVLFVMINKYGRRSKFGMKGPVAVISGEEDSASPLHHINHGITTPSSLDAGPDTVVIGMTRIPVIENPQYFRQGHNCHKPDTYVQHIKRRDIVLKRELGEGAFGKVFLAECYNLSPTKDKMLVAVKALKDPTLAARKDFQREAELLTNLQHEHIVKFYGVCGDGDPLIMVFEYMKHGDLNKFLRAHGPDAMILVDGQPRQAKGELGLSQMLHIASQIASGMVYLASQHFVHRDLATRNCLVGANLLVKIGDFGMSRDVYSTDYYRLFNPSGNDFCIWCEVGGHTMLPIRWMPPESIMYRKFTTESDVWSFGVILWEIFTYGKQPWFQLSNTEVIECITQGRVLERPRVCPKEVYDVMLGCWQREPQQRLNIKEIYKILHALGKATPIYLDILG", "assay": "Cell-associated fluorescence saturation binding, TrkC-NIH/3T3 cells", "conditions": "2.5 h, with and without 0.2 nM NT-3", "method": "FIG. 2: 5c(i) binds to TrkB and TrkC receptors. Transfected cell lines that are Trk positive cells (TrkB-HEK293 and TrkC-NIH/3T3) and non-transfected cell lines that are Trk negative cells (HEK293 and NIH/3T3) were seeded approximately 2,000 cells/well in a 96-well plate and incubated for 24 hours. The cells were treated with a serial dilution of compound (0, 10, 25, 50, 100, 200, 500, and 1000 nM) in serum-free media (SFM) with and without A) 0.6 nM of BDNF (TrkB-HEK293 and HEK293) and B) 0.2 nM of NT-3 (TrkC-NIH/3T3 and NIH/3T3) for 2.5 h. After that, the cells were washed with PBS once to remove unbound compounds and dissolved in 1% (w/v) aqueous sodium dodecyl sulfate. Cell-associated fluorescence was then determined by measuring the emission of the resulting solution upon λex (540/25 nm) and λem (620/40 nm) using Agilent BioTek Synergy H4 Hybrid Microplate Reader. Kd was calculated by GraphPad Prism 9 using Binding saturation (One site—Specific binding).\nTransfected cell lines that are Trk positive cells (TrkA-HeLa, TrkB-HEK293, and TrkC-NIH/3T3) and non-transfected cell lines that are Trk negative cells (HeLa, HEK293, and NIH/3T3) were seeded at 2,000 cells/well in a 96-well plate (0.32 cm^2 growth area) and incubated inside a 5% CO2 incubator at 37° C. for 24 hours. […] The dissociation constant (Kd) was calculated using binding saturation (One site—Specific binding)."}, "[2]": {"tested_on": "severe T8 contusion/compression SCI", "assay": "Preclinical SCI model: histological analysis of spinal cord", "format": "in vivo, mouse", "conditions": "7 weeks post injury", "excerpt": "FIGS. 11A-11E: Histological analysis of spinal cords after 5c(i) treatment. […] 7 weeks post injury, spinal cords were sectioned sagittal to conduct histological analyses. Value of 11A) change in intensity of 5-HT, average fluorescence intensity of 11B) IBA1 and 11C) CD68, and number of 11D) CD68+ and 11E) SOX9+ cells in relation to distance from injury (− value represents rostral to injury, + value represents caudal to injury). […] N=6-8. Graphs show mean and SEM. […] Student's T-test.\nMice were sacrificed 7 weeks after injury by a lethal dose of Fatal plus (pentobarbital), then, transcardial perfusion was performed with PBS-Heparin (10,000 unit/L, 20 mL, 5 mL/min) followed by a 4% paraformaldehyde fixative solution (30 mL/mouse, at 5 mL/min). Right after perfusion, tissues were immersed in 4% PFA for 24 hours, transferred to 15% sucrose for 24 hours, then transferred to 30% sucrose for 24 hours before being embedded. Subsequently, the spinal cords (at injury site±1 mm) were cut into 25 μm-thick transverse sections using a freezing microtome (THERMO FISHER SCIENTIFIC® (laboratory reagents), Microm HM550). For immunohistochemistry (IHC), the spinal cord tissue sections were placed in a blocking solution (5% BSA, 0.4% Triton X-100, PBS) for 1 hour at room temperature. This was followed by overnight incubation with primary antibodies at room temperature. The tissue sections were subsequently washed 3 times with 0.4% Triton X-100-PBS, followed by 1 hour incubation at room temperature with the appropriate secondary antibodies (1:500, INVITROGEN™ (laboratory reagents) ALEXA FLUOR® (fluorescent dyes) Plus series). The primary antibodies included biotinylated NeuN (EMD MILLIPORE® (pharmaceuticals and chemicals), MAB377B, 1:500), rat GFAP (FISHER SCIENTIFIC® (laboratory reagents), 130300, 1:500), rabbit Iba1 (FUJIFILM® (camera components) Wako Chemicals, 019-19741, 1:500), rat CD68 (BIO-RAD®, (electrophoresis and chromatography materials) MCA1957, 1:500), goat SOX9 (R&D SYSTEMS® (biological reagents), AF3075, 1:500), and rabbit anti-5-HT (ImmunoStar, 20080, 1:500). Sections were stained with DAPI (1:5000, Millipore Sigma) to visualize the nucleus. The images were acquired using VS120 Virtual Slide Microscope (Olympus) and Axio Observer 7 (ZEISS® (optical products)) and analyzed with QuPath 0.4.3. The contour (polygonal) tool in the Zen 3.2 (Carl Zeiss AG, Jena, Germany) software was used to trace and measure lesion and cavity size. The lesion size was measured by tracing the glial scar border labeled with GFAP surrounding a DAPI^+ inner region. Cavity size was measured by measuring the region within the spinal cord without any visible nuclei yet surrounded by GFAP labeled glial scar. Three spinal cord sections per animal were imaged and analyzed. The 3 sections included the section containing the largest lesion size along with sections 300 μm rostral and caudal. Images were quantified using QuPath software. Eight boxes with a width of 200 μm were drawn both rostral and caudal of the injury epicenter. A contour polygon was made around the spinal cord in each of the sixteen boxes. Fluorescent intensity and cell counting was conducted using automated QuPath software. Histological analysis on liver tissue was conducted by sectioning the left lobe of the liver into 8 μm-thick transverse sections. […] Collagen accumulation was quantified using automated QuPath software to determine the extent of fibrosis."}}, "data": [{"substance": "C-DIRG-C BODIPY® (fluorescent dye) [5c(i)]", "values": [{"measurement": "affinity for TrkC (Kd)", "setting": "[1]", "result": "low nanomolar affinity"}, {"measurement": "number of SOX9′ cells", "setting": "[2]; around the injury site", "result": "reduced"}, {"measurement": "prevalence of CD68+ cells", "setting": "[2]; around the injury site", "result": "significantly reduced"}, {"measurement": "CD68 immunoreactivity", "setting": "[2]; at the injury site", "result": "significantly reduced"}, {"measurement": "serotonergic (5-HT) axon immunoreactivity", "setting": "[2]; caudal to the injury site", "result": "increased"}, {"measurement": "IBA1 immunoreactivity", "setting": "[2]; spinal cord", "result": "reduced"}]}]}
